In patent publication US12516364B2, “Device for testing bacterium, and method for testing bacterium” (Hitachi High-Tech Corporation, priority 2018, dated 2026):

Tested on: Escherichia coli
Experiment: antibacterial susceptibility determination from microscopic images (luminance value and area of bacteria)
Format: cell-based
Conditions: ampicillin 2 μg/mL; 0 to 360 minutes; with or without minimum filter; growth has not occurred over the entire image
Procedure: The test plate 102 has a plurality of wells, and each well holds a medium component that facilitate the growth of bacteria and an antibacterial drug to be tested. After a bacterial solution containing the bacteria to be tested is dispensed to each well, the test plate 102 is introduced into the bacteria test apparatus 100. The bacteria test apparatus 100 is adjusted to a temperature, such as 37° C., at which the bacteria can grow.
The illuminator 101 illuminates the test plate 102 with light. As the illuminator 101, a light source of white light such as a lamp or a light source of light in a specific wavelength range such as an LED may be used. Light passing through each well of the test plate 102 is condensed by the objective lens 103 and measured as an image by the imager 104. […] Further, images of a plurality of points in each well may be captured, or alternatively, a plurality of images of the inside of the culture solution away from the bottom surface of each well of the test plate 102 may be measured. […]
The determiner 1055 acquires the new feature from the arithmetic unit 1051 and outputs the determination result for each well. […] The mean of luminance values is calculated from the image captured at the preset determination time, and a difference from the mean of luminance values at an initial culture stage is calculated. […]

## CC1(C)S[C@@H]2[C@H](NC(=O)[C@H](N)c3ccccc3)C(=O)N2[C@H]1C(=O)O [ampicillin]
  time variation in mode of luminance values: does not vary
